We go through one compound from patent US12251366B1, “Sulforaphane-cysteine for wound healing in diabetic subjects” (KUWAIT UNIVERSITY, priority 2024, dated 2025).

The test system of one experiment is fibroblasts (CF, DF). Briefly: Proliferation of fibroblasts from control and diabetic wounds. It is filed as cell-based, rat. The note with it: 1.5 μM. On the procedure:
Successful wound healing necessitates a series of tightly coordinated and overlapping processes including inflammation, new tissue formation and remodeling. Fibroblasts, in response to growth factors-released mostly by macrophages, migrate to the site of injury, where they proliferate and lay down the extracellular matrix (ECM). Consequently, this facilitates cell migration and tissue reconstruction. The effect of a therapeutic concentration of SFN-Cys (1.5 μM) was investigated on the proliferation of fibroblasts isolated from the granulation tissue of control and diabetic wounds. Similarly, the effect of SFN-Cys on cell migration in the in vitro wound closure assay was also considered. […] Accordingly, in vivo wound closure properties of SFN-Cys were examined using an excisional wound healing rat model. SFN-Cys containing Pluronic acid was topically applied to the wound at a dose of 1.5 μmol concentration and the wound closure area was digitally photographed and quantified. Digital photographs were obtained on day-0 through day-7 of post wounding. […] In this context, the wound healing time-course was faster in SFN-Cys containing Pluronic acid than the Pluronic acid alone (FIG. 3C). […] VEGF is a well-established enhancer of the proliferative phase of healing. […]

A further experiment relates to NQO1. The experiment is described as follows: mRNA expression of Nrf2 target gene NQO1 in fibroblasts. The note with it: diabetic fibroblasts, 1.5 μM. It is filed as cell-based, rat. On the procedure:
To better characterize how SFN-Cys impacts cellular antioxidant levels, the ability of SFN-Cys to regulate the transcription factor nuclear factor erythroid 2-related factor 2 (Nrf2) was assessed, which is a master regulator of the antioxidative stress response that induces the expression of antioxidant proteins such as heme oxygenase (HO) and NAD(P)H dehydrogenase (quinine; NQO1) and key enzymes in the glutathione system. In this context, Nrf2 transcriptional activity was first measured using a vector encoding luciferase driven by the NQO1 promoter. […] Administration of SNF-Cyst at the above indicated concentration (1.5 μM, the lowest effective concentration) ameliorated diabetes-induced suppression of the Nrf2 activity and Nrf2-target genes including HO and NQO1 (FIG. 2A-D).
(§1) Total RNA from cells or frozen sponge implants was extracted using the Trizol reagent (Invitrogen), and the RNA integrity was verified by agarose gel electrophoresis. […] The amplified sequences were assessed using the ABI 7500 Prism Sequence Detection system machine. The results were expressed as mRNA levels normalized to 18S or GAPDH in each sample.

Experiment [1] relates to bone marrow-derived macrophages. Briefly: LPS-induced cytokines in bone marrow-derived macrophages. It is filed as cell-based, mouse. On the procedure:
Additional tests were conducted to determine whether SFN-Cys also suppresses TNF-α and IL-6 expression at the mRNA level. […] Thioglycollate-elicited mouse peritoneal macrophages were prepared from C57BL (8-10 weeks old) and cultured in RPMI 1640 with 10% (v/v) FCS Bone marrow-derived macrophages were generated in RPMI medium containing M-CSF (10 ng/mL) according to previously published procedure. For cytokine ELISA assay, cells were seeded at 5×10^5 in 12-well plates, whereas for mRNA expression, the cells were seeded at […]. LPS and used at a dose of 100 ng/mL. Similarly. SFN-Cys was used at a concentration of 1.5 umol/L.

Experiment [2] relates to wound fibroblasts (DF, CF-GP). Briefly: Cell viability assay, H2O2 cytotoxicity in wound fibroblasts. The note with it: 1.5 to 5 μM. It is filed as cell-based, rat. The method, then: To determine if SFN-Cys is involved in cellular detoxification of oxidant load, wound fibroblasts derived from the granulation tissue of control and diabetic animals with H2O2 were measured for their abilities to survive acute oxidative stress in the presence or absence of SFN-Cys. […] Moreover, CF exposed for 72 hours to high glucose (25 mmole/L and palmitate 200 μmole/L, CF-GP) to mimic the diabetic state produced analogous results to those seen with DF as illustrated in FIG. 2A. Supplementing DF and CF-GP with SFN-Cys at a dose of 1.5 to 5 μM eliminated the reactive oxygen species difference between these cells and enhanced DF and CF-GP resistance to H2O2(FIG. 2A).
Control and diabetic fibroblasts were isolated from wounds inflicted on control Wistar rats (CF) or Goto kakazaki rats (GK), a model of non-obese type 2 diabetes. All information regarding the GK rats and the preparation and culturing of control (CF) and diabetic (DF) fibroblasts was described in detailed in previous publications, Bitar, M S, and Mulla, F. Am J Phyaiol. […]
The response of CF and DF to H2O2 cytotoxicity was measured by seeding the cells into 96-well plates at a density of 5×10^3 to 8×10^3 cells per well and were allowed to adhere overnight in 10% FCS-DMEM medium. […] Cell viability was measured using WST-1 (Dojindo, USA;) according to the manufacturer's instructions.

In a further experiment the test system is heme oxygenase. The experiment is described as follows: Tissue mRNA expression of heme oxygenase after SFN-Cys diet. It is filed as in vivo. The note with it: heart, kidney, liver and skin; SFN-Cys diet 1.5-2.5 μmol/mouse, 21 days. On the procedure: Testing the pharmacodynamic and toxicodynamic properties of SFN-Cys dictated the mixing SFN-Cys with a powdered diet. The estimated dose delivered by this diet was 1.5-2.5 μmol/mouse (n=4). The SFN-Cys diet was stored at 4° C. and the feeders were refilled daily for the duration of the study (21 days). Corresponding animals received food without the drug.
For dietary treatment with SFN-Cys, the SFN-Cys was mixed with a powdered diet (7.5 mg of SFN-Cys per kg of food). The estimated dose delivered by this diet was about 1.0-1.5 mg/kg. The diet was stored at 4° C. and the feeders were refilled daily. Control animals received diet alone. Body weights were recorded twice a week and at the termination of the study, blood was drawn in EDTA-containing tubes, plasma was collected by centrifugation and stored at −80° C. until analysis.
as §1

Experiment [3] relates to neuronal, vascular, muscle, cardiac and stem cells. The experiment is described as follows: Protection of cells from oxidative stress and inflammation-induced apoptotic cell death. It is filed as cell-based. The note with it: at certain concentrations. The text has this:
Thus, SNF-Cys may have a therapeutic benefit in the following conditions in addition to impaired wound healing: Sarcopenia, Fat grafting, Psoriasis, Nerve regeneration and diabetic neuropathy, Erectile dysfunction, and Cardiac fibrosis.

The test system of a further experiment is full-thickness wounds. The experiment is described as follows: In vivo wound closure assay, excisional wound healing rat model. Also noted: species or system GK rats. The note with it: for mitigation of diabetes-related impairment of wound healing compared with VEGF: animal model of (aged) type 2 diabetes; for wound closure / wound healing: rats, topical 1.5 μmol/wound in Pluronic acid every other day, day-0 through day-7. The method, then:
Successful wound healing necessitates a series of tightly coordinated and overlapping processes including inflammation, new tissue formation and remodeling. Fibroblasts, in response to growth factors-released mostly by macrophages, migrate to the site of injury, where they proliferate and lay down the extracellular matrix (ECM). Consequently, this facilitates cell migration and tissue reconstruction. The effect of a therapeutic concentration of SFN-Cys (1.5 μM) was investigated on the proliferation of fibroblasts isolated from the granulation tissue of control and diabetic wounds. Similarly, the effect of SFN-Cys on cell migration in the in vitro wound closure assay was also considered. […] Accordingly, in vivo wound closure properties of SFN-Cys were examined using an excisional wound healing rat model. SFN-Cys containing Pluronic acid was topically applied to the wound at a dose of 1.5 μmol concentration and the wound closure area was digitally photographed and quantified. Digital photographs were obtained on day-0 through day-7 of post wounding. […] In this context, the wound healing time-course was faster in SFN-Cys containing Pluronic acid than the Pluronic acid alone (FIG. 3C). […] VEGF is a well-established enhancer of the proliferative phase of healing.
For wounding experiments, 15-18-month female GK rats were anesthetized with intraperitoneal injection of ketamine/xylazine and full-thickness wounds were made in the mid dorsal skin with 8-mm disposable punches. To evaluate the effect of SFN-Cys on wound closure, the drug was dissolved initially with DMSO and then diluted with a 25% Pluronic acid solution at a dose of 1.5 μmol/wound; applied topically to the wound every other day. The wounds were photographed at 0-, 3- or 7-days post-wounding.

Molecules are shown by their SMILES. “Also recorded” adds a separate entry of the source.

With `C[S+]([O-])CCCCNC(=S)SCC(N)C(=O)O` (centres unmarked) [SFN-Cys, Sulforaphane-Cysteine], in the experiment with fibroblasts (CF, DF), the cell proliferation entry was “enhanced cell proliferation in both CF and DF”. Moreover, in the experiment with NQO1, the “mRNA expression of Nrf2 target gene NQO1” value is “ameliorated”. In addition, the “suppression of LPS-induced TNF-α and IL-6 in bone marrow-derived macrophages” value in experiment [1] is reported as “analogous results were also seen”. Moreover, the “reactive oxygen species difference between DF/CF-GP and control fibroblasts” value in experiment [2] is “eliminated”. The “resistance to H2O2 (cell viability)” value in experiment [2] (DF and CF-GP, H2O2 400 μmol/L 4 hours, WST-1) was “enhanced”. The “mRNA expression of heme oxygenase relative to control” value in the experiment with heme oxygenase is reported as “about 3 folds”. Also, the “protection from oxidative state and low-grade inflammation-induced apoptotic cell death” value in experiment [3] is “protects”. In the experiment with full-thickness wounds, the “mitigation of diabetes-related impairment of wound healing compared with VEGF” value is reported as “better than vascular endothelial growth factor (VEGF)”; the “wound closure / wound healing” value is “enhanced wound closure; also recorded: ameliorated; also recorded: increases wound healing potential both in control and diabetic subjects”. Moreover, in the experiment on full-thickness wounds (listed as SNF-Cys), the “mitigation of diabetes-related impairment of wound healing compared with VEGF” value is given as “more efficacious than vascular endothelial growth factor (VEGF)” and the “wound closure / wound healing” value was “ameliorated”.
